Here are results for 26 molecules from patent publication US8329904B2, “Azacyclic derivatives” (Hoffmann-La Roche Inc., priority 2009, dated 2012).

Structures are written as SMILES.

This assay addresses T1, human HSL (Homo sapiens, UniProt Q05469).
T1 construct: overlapping PCR to generate a full length human HSL ORF with a 3′-His6 tag; His6 (C); made in house; host or cells: High 5 insect cells (baculovirus, pFast-BAC)
T1 sequence (Q05469 1-1076): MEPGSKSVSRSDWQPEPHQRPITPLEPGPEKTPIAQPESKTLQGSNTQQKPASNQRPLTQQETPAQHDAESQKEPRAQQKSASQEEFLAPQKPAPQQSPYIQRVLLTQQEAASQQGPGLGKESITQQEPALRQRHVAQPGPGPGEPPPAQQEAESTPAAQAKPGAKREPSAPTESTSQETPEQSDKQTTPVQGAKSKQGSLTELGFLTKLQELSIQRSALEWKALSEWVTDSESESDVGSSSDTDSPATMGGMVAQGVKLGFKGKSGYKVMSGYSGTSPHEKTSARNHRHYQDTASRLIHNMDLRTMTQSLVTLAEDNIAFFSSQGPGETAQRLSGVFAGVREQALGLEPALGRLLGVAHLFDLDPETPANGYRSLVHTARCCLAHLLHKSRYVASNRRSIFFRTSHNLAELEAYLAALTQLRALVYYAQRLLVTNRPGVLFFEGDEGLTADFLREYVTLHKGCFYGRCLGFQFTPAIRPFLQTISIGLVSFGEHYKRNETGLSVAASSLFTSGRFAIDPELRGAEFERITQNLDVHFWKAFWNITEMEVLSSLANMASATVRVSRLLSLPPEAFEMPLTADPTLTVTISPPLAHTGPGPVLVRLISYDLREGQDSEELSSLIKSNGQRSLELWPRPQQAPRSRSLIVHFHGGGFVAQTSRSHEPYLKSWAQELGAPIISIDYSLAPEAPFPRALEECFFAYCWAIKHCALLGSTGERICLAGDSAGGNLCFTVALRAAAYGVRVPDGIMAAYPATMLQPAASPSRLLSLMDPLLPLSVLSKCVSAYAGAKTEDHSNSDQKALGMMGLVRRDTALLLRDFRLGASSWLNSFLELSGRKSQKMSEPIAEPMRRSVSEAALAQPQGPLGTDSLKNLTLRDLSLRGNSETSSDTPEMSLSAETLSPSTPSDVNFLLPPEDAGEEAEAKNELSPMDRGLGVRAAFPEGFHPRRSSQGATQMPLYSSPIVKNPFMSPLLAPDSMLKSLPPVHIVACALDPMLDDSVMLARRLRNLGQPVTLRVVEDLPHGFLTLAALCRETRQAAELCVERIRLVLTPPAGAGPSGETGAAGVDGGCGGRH
Put plainly: Human Hormone-Sensitive Lipase (HSL) Enzyme Inhibition Assay. The settings on record: colorimetric assay, 2,3-dimercapto-1-propanol tributyrate (DMPT) substrate, 37° C. for 20 minutes, absorbance at 405 nm; read-out: HSL hum IC50. The class given is biochemical. The procedure, abridged: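 Colorimetric thioester hydrolysis: compounds in DMSO series mixed with DMPT (1.5 mM) in MOPS pH 7.2 with BSA, then baculovirus-expressed His6-tagged full-length human HSL added, 37° C, 20 min. DTNB plus detergents added, 15 min room temperature, absorbance at 405 nm.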

As for `O=C1N(c2ccc(C3(O)COC3)cc2)CCC12CCN(S(=O)(=O)c1ccccc1Cl)CC2` [Example 229, 8-(2-Chloro-benzenesulfonyl)-2-[4-(3-hydroxy-oxetan-3-yl)-phenyl]-2,8-diaza-spiro[4.5]decan-1-one], the 50% inhibitory concentration (IC50) worked out at 240 nM.
The same measure for `O=C1N(c2ccc(C3(F)COC3)cc2)CCC12CCN(S(=O)(=O)c1ccccc1Cl)CC2` [Example 230, 8-(2-Chloro-benzenesulfonyl)-2-[4-(3-fluoro-oxetan-3-yl)-phenyl]-2,8-diaza-spiro[4.5]decan-1-one]: 30 nM.
Turning to `O=C1N(c2ccc(C3(O)CCC3)cc2)CCC12CCN(S(=O)(=O)c1ccccc1Cl)CC2` [Example 231, 8-(2-Chloro-benzenesulfonyl)-2-[4-(1-hydroxy-cyclobutyl)-phenyl]-2,8-diaza-spiro[4.5]decan-1-one], the IC50 worked out at 20 nM.
The same measure for `Cc1cc(CS(=O)(=O)N2CCC3(CCN(c4ccc(OC(F)(F)F)cc4)C3=O)CC2)no1` [Example 232, 8-(5-Methyl-isoxazol-3-ylmethanesulfonyl)-2-(4-trifluoromethoxy-phenyl)-2,8-diaza-spiro[4.5]decan-1-one]: 90 nM; for `CC(C)c1cc(CS(=O)(=O)N2CCC3(CCN(c4ccc(OC(F)(F)F)cc4)C3=O)CC2)on1` [Example 233, 8-(3-Isopropyl-isoxazol-5-ylmethanesulfonyl)-2-(4-trifluoromethoxy-phenyl)-2,8-diaza-spiro[4.5]decan-1-one]: 200 nM.
Under `COC(=O)c1cccc(C)c1S(=O)(=O)N1CCC2(CCN(c3ccc(OC(F)(F)F)cc3)C2=O)CC1` [Example 234, 3-Methyl-2-[1-oxo-2-(4-trifluoromethoxy-phenyl)-2,8-diaza-spiro[4.5]decane-8-sulfonyl]-benzoic acid methyl ester] stands 150 nM; under `O=C1N(Cc2cccc(Cl)c2)CCC12CCN(S(=O)(=O)c1ccccc1Cl)CC2` [Example 235, 8-(2-Chloro-benzenesulfonyl)-2-(3-chloro-benzyl)-2,8-diaza-spiro[4.5]decan-1-one], 400 nM; under `O=C1N(CCc2ccccc2)CCC12CCN(S(=O)(=O)c1ccccc1Cl)CC2` [Example 236, 8-(2-Chloro-benzenesulfonyl)-2-phenethyl-2,8-diaza-spiro[4.5]decan-1-one], 50 nM.
The same measure for `CCc1ccc(CCN2CCC3(CCN(S(=O)(=O)c4ccccc4Cl)CC3)C2=O)cc1` [Example 237, 8-(2-Chloro-benzenesulfonyl)-2-[2-(4-ethyl-phenyl)-ethyl]-2,8-diaza-spiro[4.5]decan-1-one]: 40 nM.
On to `CC(C)(C)c1ccc(CCN2CCC3(CCN(S(=O)(=O)c4ccccc4Cl)CC3)C2=O)cc1` [Example 238, 2-[2-(4-tert-Butyl-phenyl)-ethyl]-8-(2-chloro-benzenesulfonyl)-2,8-diaza-spiro[4.5]decan-1-one], for which the IC50 stood at 100 nM.
Regarding `O=C1N(CCc2ccc(F)cc2)CCC12CCN(S(=O)(=O)c1ccccc1Cl)CC2` [Example 239, 8-(2-Chloro-benzenesulfonyl)-2-[2-(4-fluoro-phenyl)-ethyl]-2,8-diaza-spiro[4.5]decan-1-one], the IC50 worked out at 60 nM.
With `COc1ccc(CCN2CCC3(CCN(S(=O)(=O)c4ccccc4Cl)CC3)C2=O)cc1` [Example 240, 8-(2-Chloro-benzenesulfonyl)-2-[2-(4-methoxy-phenyl)-ethyl]-2,8-diaza-spiro[4.5]decan-1-one], the half-inhibitory concentration (IC50) was determined as 60 nM.
The same measure for `O=C1N(CCCc2ccccc2)CCC12CCN(S(=O)(=O)c1ccccc1Cl)CC2` [Example 241, 8-(2-Chloro-benzenesulfonyl)-2-(3-phenyl-propyl)-2,8-diaza-spiro[4.5]decan-1-one]: 90 nM; for `O=C1N(CCc2ccccc2Cl)CCC12CCN(S(=O)(=O)c1ccccc1Cl)CC2` [Example 242, 8-(2-Chloro-benzenesulfonyl)-2-[2-(2-chloro-phenyl)-ethyl]-2,8-diaza-spiro[4.5]decan-1-one]: 210 nM; for `O=C1N(CCc2cccc(F)c2)CCC12CCN(S(=O)(=O)c1ccccc1Cl)CC2` [Example 243, 8-(2-Chloro-benzenesulfonyl)-2-[2-(3-fluoro-phenyl)-ethyl]-2,8-diaza-spiro[4.5]decan-1-one]: 50 nM.
Under `COc1cccc(CCN2CCC3(CCN(S(=O)(=O)c4ccccc4Cl)CC3)C2=O)c1` [Example 244, 8-(2-Chloro-benzenesulfonyl)-2-[2-(3-methoxy-phenyl)-ethyl]-2,8-diaza-spiro[4.5]decan-1-one] stands 230 nM.
Under `O=C1N(CCc2cccc(C(F)(F)F)c2)CCC12CCN(S(=O)(=O)c1ccccc1Cl)CC2` [Example 245, 8-(2-Chloro-benzenesulfonyl)-2-[2-(3-trifluoromethyl-phenyl)-ethyl]-2,8-diaza-spiro[4.5]decan-1-one] stands 100 nM.
In the case of `O=C1N(CCCCc2ccccc2)CCC12CCN(S(=O)(=O)c1ccccc1Cl)CC2` [Example 246, 8-(2-Chloro-benzenesulfonyl)-2-(4-phenyl-butyl)-2,8-diaza-spiro[4.5]decan-1-one], the IC50 was 80 nM.
For the molecule `O=C1N(CCc2cccc(Cl)c2)CCC12CCN(S(=O)(=O)c1ccccc1Cl)CC2` [Example 247, 8-(2-Chloro-benzenesulfonyl)-2-[2-(3-chloro-phenyl)-ethyl]-2,8-diaza-spiro[4.5]decan-1-one], the half-maximal inhibitory concentration (IC50) is 80 nM.
The same measure for `O=C1N(CCc2ccc(Cl)c(Cl)c2)CCC12CCN(S(=O)(=O)c1ccccc1Cl)CC2` [Example 248, 8-(2-Chloro-benzenesulfonyl)-2-[2-(3,4-dichloro-phenyl)-ethyl]-2,8-diaza-spiro[4.5]decan-1-one]: 70 nM.
The same measure for `CC(Cc1ccc(F)cc1)N1CCC2(CCN(S(=O)(=O)c3ccccc3Cl)CC2)C1=O` (centres unmarked) [Example 249, 8-(2-Chloro-benzenesulfonyl)-2-[2-(4-fluoro-phenyl)-1-methyl-ethyl]-2,8-diaza-spiro[4.5]decan-1-one]: 460 nM; for `CCc1ccc(N2CCC3(CCN(S(=O)(=O)c4ccccc4Cl)CC3)C2=O)cn1` [Example 250, 8-(2-Chloro-benzenesulfonyl)-2-(6-ethyl-pyridin-3-yl)-2,8-diaza-spiro[4.5]decan-1-one]: 110 nM; for `CCCNC(=O)N1CCC2(CC1)CCN(c1ccc(OC(F)(F)F)cc1)C2=O` [Example 251, 1-Oxo-2-(4-trifluoromethoxy-phenyl)-2,8-diaza-spiro[4.5]decane-8-carboxylic acid propylamide]: 470 nM.
The same measure for `CCCN(C)C(=O)N1CCC2(CC1)CCN(c1ccc(CC)cc1)C2=O` [Example 252, 2-(4-Ethyl-phenyl)-1-oxo-2,8-diaza-spiro[4.5]decane-8-carboxylic acid methyl-propyl-amide]: 180 nM.
As to `CCCN(C)C(=O)N1CCC2(CC1)CCN(c1ccc(OC(F)(F)F)cc1)C2=O` [Example 253, 1-Oxo-2-(4-trifluoromethoxy-phenyl)-2,8-diaza-spiro[4.5]decane-8-carboxylic acid methyl-propyl-amide], the 50% inhibitory concentration (IC50) is 140 nM.
The same measure for `CC(C)NC(=O)N1CCC2(CC1)CCN(c1ccc(OC(F)(F)F)cc1)C2=O` [Example 254, 1-Oxo-2-(4-trifluoromethoxy-phenyl)-2,8-diaza-spiro[4.5]decane-8-carboxylic acid isopropylamide]: 400 nM.

As usually defined, the IC50 is the midpoint of a concentration-inhibition curve.
